The record followed here is patent US20240383886A1, “Protein Tyrosine Phosphatase Degraders and Methods of Use Thereof” (CALICO LIFE SCIENCES LLC, priority 2019, published 2024).

One may read the DC50 as the concentration at which degradation of the target reaches its halfway point. A low value points to degradation at low concentration.

Assay [1] deals with T1, PTPN2 (Homo sapiens, UniProt P17706).
T1 construct: expressed in transfected cells; host or cells: 293T (293T.109 HiBiT-PTPN2 line; parental 293T WT from ATCC)
T1 sequence (P17706 1-415): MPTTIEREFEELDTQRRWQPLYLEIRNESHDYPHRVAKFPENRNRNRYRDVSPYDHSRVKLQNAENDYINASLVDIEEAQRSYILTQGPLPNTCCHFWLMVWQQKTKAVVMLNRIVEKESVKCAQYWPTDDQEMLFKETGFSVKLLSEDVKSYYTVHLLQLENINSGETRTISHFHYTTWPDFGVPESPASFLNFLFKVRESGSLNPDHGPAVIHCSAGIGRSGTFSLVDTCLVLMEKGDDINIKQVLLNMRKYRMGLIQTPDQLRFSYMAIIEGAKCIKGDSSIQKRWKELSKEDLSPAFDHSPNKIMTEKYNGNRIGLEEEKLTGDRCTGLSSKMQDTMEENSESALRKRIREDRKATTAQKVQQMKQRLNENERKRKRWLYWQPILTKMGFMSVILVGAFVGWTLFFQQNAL
The experiment in a line: HiBiT-Degradation 293T.109 PTPN2 (Nano-Glo HiBiT Lytic Assay). The following applies: 293T.109 (HiBiT-PTPN2) cells, 24.0 hours. It is filed as cell-based. The gist of the method: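 293T cells ectopically expressing N-terminally HiBiT-tagged PTPN2 were seeded at 5000 cells/well. They were treated with an 11-point half-log titration from 10 μM, in duplicate, for 24 hours at 37° C., 5% CO2. Remaining tagged PTPN2 was quantified by lytic HiBiT luminescence against untreated and no-reagent controls.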
Background: With HiBiT, luminescence reflects the tagged protein that the partner subunit can reach.

In assay [2] the test system is PTPN2. The experiment in a line: HiBiT-Degradation B16F10.4 PTPN2. It counts as cell-based. The following applies: B16F10.4 cells, 24.0 hours.

Turning to `O=C1CCC(N2Cc3c(OCC(=O)N4CCC(C(=O)NCCOc5ccc6cc(O)c(N7CC(=O)NS7(=O)=O)c(F)c6c5)CC4)cccc3C2=O)C(=O)N1` (stereo not drawn) [Example 3, 1-[2-[2-(2,6-dioxo-3-piperidyl)-1-oxo-isoindolin-4-yl]oxyacetyl]-N-[2-[[8-fluoro-6-hydroxy-7-(1,1,4-trioxo-1,2,5-thiadiazolidin-2-yl)-2-naphthyl]oxy]ethyl]piperidine-4-carboxamide], the DC50 on PTPN2 [1] lay within 50 to 200 nM; in the assay on PTPN2 [2] it was 200 to 1000 nM.

As to `O=C(CN1CCC(n2cc(CNc3cccc4c3C(=O)N(C3CCC(=O)NC3=O)C4=O)nn2)CC1)NCCOc1ccc2cc(O)c(N3CC(=O)NS3(=O)=O)c(F)c2c1` (stereo not drawn) [Example 40], the DC50 is 200 to 1000 nM at PTPN2 [1] and not below 1000 nM with PTPN2 [2].

In the case of `O=C1CCC(N2Cc3c(NCc4cnn(CCC(=O)Nc5ccc6c(F)c(N7CC(=O)NS7(=O)=O)c(O)cc6c5)c4)cccc3C2=O)C(=O)N1` (stereo not drawn) [Example 13, 3-[4-[[[2-(2,6-dioxo-3-piperidyl)-1-oxo-isoindolin-4-yl]amino]methyl]pyrazol-1-yl]-N-[5-fluoro-7-hydroxy-6-(1,1,4-trioxo-1,2,5-thiadiazolidin-2-yl)-2-naphthyl]propanamide], the figures for the DC50 at PTPN2 [1] and in the assay with PTPN2 [2] were 50 to 200 nM and 200 to 1000 nM, respectively.

Take `CN(CCOc1ccc2cc(O)c(N3CC(=O)NS3(=O)=O)c(F)c2c1)C(=O)CNCCCc1ccc2c3c(cccc13)C(=O)N2C1CCC(=O)NC1=O` (stereo not drawn) [Example 166, N-(2-((7-(1,1-dioxido-4-oxo-1,2,5-thiadiazolidin-2-yl)-8-fluoro-6-hydroxynaphthalen-2-yl)oxy)ethyl)-2-((3-(1-(2,6-dioxopiperidin-3-yl)-2-oxo-1,2-dihydrobenzo[cd]indol-6-yl)propyl)amino)-N-methylacetamide]: the DC50 at PTPN2 [1] lay in the range of 50 to 200 nM; in the assay on PTPN2 [2], 200 to 1000 nM.

Consider `O=C1CCC(N2Cc3c(NCC(=O)N4CC(C(=O)NCCOc5ccc6cc(O)c(N7CC(=O)NS7(=O)=O)c(F)c6c5)C4)cccc3C2=O)C(=O)N1` (stereo not drawn) [Example 36], for which the DC50 on PTPN2 [1] and in the assay with PTPN2 [2] was 200 to 1000 nM each time.

In the case of `O=C(CCOCCOCCn1cc(CNc2cccc3c2C(=O)N(C2CCC(=O)NC2=O)C3=O)nn1)NCCOc1ccc2cc(O)c(N3CC(=O)NS3(=O)=O)c(F)c2c1` (stereo not drawn) [Example 44], the half-maximal degradation concentration (DC50) on PTPN2 [1] and with PTPN2 [2] was not below 1000 nM in each case.

Regarding `Cn1c(=O)n(C2CCC(=O)NC2=O)c2ccc(C3CCN(CC(=O)Nc4ccc5c(F)c(N6CC(=O)NS6(=O)=O)c(O)cc5c4)CC3F)cc21` (stereo not drawn) [Example 182, 2-[4-[1-(2,6-dioxo-3-piperidyl)-3-methyl-2-oxo-benzimidazol-5-yl]-3-fluoro-1-piperidyl]-N-[5-fluoro-7-hydroxy-6-(1,1,4-trioxo-1,2,5-thiadiazolidin-2-yl)-2-naphthyl]acetamide], the DC50 on PTPN2 [1] and in the assay with PTPN2 [2] was 10 to 50 nM throughout.

Consider `Cn1c(=O)n(C2CCC(=O)NC2=O)c2ccc(Nc3ccc(CC(=O)Nc4ccc5c(F)c(N6CC(=O)NS6(=O)=O)c(O)cc5c4)cc3)cc21` (stereo not drawn) [Example 105, 2-[4-[[1-(2,6-dioxo-3-piperidyl)-3-methyl-2-oxo-benzimidazol-5-yl]amino]phenyl]-N-[5-fluoro-7-hydroxy-6-(1,1,4-trioxo-1,2,5-thiadiazolidin-2-yl)-2-naphthyl]acetamide], for which the DC50 on PTPN2 [1] and in the assay on PTPN2 [2] was 10 to 50 nM throughout.

Take `Cn1nc(C2CCC(=O)NC2=O)c2ccc([C@H]3CC[C@@H](CC(=O)Nc4ccc5c(F)c(N6CC(=O)NS6(=O)=O)c(O)cc5c4)CC3)cc21` (stereo partly drawn) [Example 180, N-(6-(1,1-dioxido-4-oxo-1,2,5-thiadiazolidin-2-yl)-5-fluoro-7-hydroxynaphthalen-2-yl)-2-((cis)-4-(3-(2,6-dioxopiperidin-3-yl)-1-methyl-1H-indazol-6-yl)cyclohexyl)acetamide]: the results for the DC50 at PTPN2 [1] and with PTPN2 [2] were 10 to 50 nM and 50 to 200 nM, respectively.
